Drawing on a melting point compilation (Tetko et al.; mined from patent text by program, amines drawn as free bases though some values may be those of a salt), this text covers melting point for 64 compounds.

A value given as a limit tells only on which side of the number the result lay.

`CCCCC[C@H]1CC[C@H](c2ncc(O)cn2)CC1`: the melting point fell in the range of 190 to 191 °C.
`Oc1ccccc1-c1nnco1` gave a melting point of 112 to 113 °C.
`CCOC(=O)CSc1ccc([N+](=O)[O-])cc1` displayed a melting point of 43 to 45 °C.
The figure for `S=C(NCCCCN(Cc1ccc(Cl)c(Cl)c1)c1ccc(Br)cn1)NCCCn1ccnc1` is 139 to 141 °C.
On to `COc1cc(C=C2SC(=S)N(c3ccc(O)cc3)C2=O)ccc1OC1OC(CO)C(O)C(O)C1NC(C)=O` (centres undefined), for which the melting point was in the range of 234 to 236 °C.
Consider `CCCc1nn(-c2ccc(C(F)(F)F)cn2)cc1CCCOc1cc(CC(=O)O)ccc1OC`, for which the melting point was 124 to 126 °C.
Take `CC1=CC2=C(C)C3(CC3)C(C)(O)C(=O)C2=C1` (centres undefined): the melting point fell in the range of 138 to 140 °C.
As for `O=c1cc(-c2cccs2)oc2cccc(OCCO)c12`, the melting point lay in the range of 160 to 162 °C.
Compound `Cc1nc2c(N)nc3ccccc3c2s1` registered a melting point of 184 to 187 °C.
As to `Cc1cc(Oc2cccnc2)c(S(C)(=O)=O)cc1C(=O)N=C(N)N`, the melting point lay within 221 to 224 °C.
In the case of `Cc1ccccc1Oc1cccc(C=O)c1O`, the melting point lay in the range of 56 to 58 °C.
`CSc1cc(C=O)cc(OCc2ccccc2)c1O` returned a melting point of 117 to 119 °C.
`CC(C)Oc1ccc(NCCS(=O)(=O)NCCCOc2cccc(CN3CCCCC3)c2)cc1`: the melting point lay in the range of 110 to 122 °C.
With `CC12CC(N3CCC(=O)CC3)C(O)CC1CCC1C2CCC2(C)C(O)C(N3CCCC3)CC12` (centres undefined), the melting point was in the range of 136 to 138 °C.
The compound `FC(F)(F)CCN1CCN(Cc2ccc3c(c2)-c2[nH]nc(-c4ccsc4)c2C3)CC1` gave a melting point of 195 to 200 °C.
`Cc1cc2c(O)nccc2s1` registered a melting point of 214 to 216 °C.
The figure for `COc1ccc(N2CCN(c3ccc(N=C=S)cc3)CC2)cc1` is 181 °C; for `O=C(O)COc1ccc2c(-c3ccccc3F)noc2c1` it is 182 to 184 °C; for `COc1cc(NC(=O)Nc2ccc(N3CCN(C(=O)Nc4cc(OCCO)ccc4Cl)CC3)cc2)cc(OC)c1` it is 191 to 192 °C.
With `CCOCc1nc2c(N)nc3ccccc3c2n1NC1CCCCC1`, the melting point lay within 143 to 145 °C.
The compound `CN(C)CCOc1ccc([C@H]2C[C@]3(C)C(=O)CC[C@H]3[C@@H]3CCc4c(ccc(O)c4Cl)[C@H]32)cc1` came in with a melting point of 254 °C.
As to `O=C1c2ccccc2C(=O)N1CCCS(=O)(=O)c1ccc(Cl)cc1`, the melting point turned out to be 188 °C.
Compound `Nc1ccc(C=Cc2ccncn2)cc1` returned a melting point of 227 to 230 °C.
The compound `CCc1[nH]c(=O)[nH]c1C(=O)C(C)C` yielded a melting point of 206 to 208 °C.
`Cc1ncc2n1-c1ccc(Cl)cc1C(c1ccccc1F)N(C)C2` (centres undefined) yielded a melting point of 156 to 158 °C.
`O=c1c2ccc(Cl)cc2[nH]c2c(O)nn(CC#Cc3ccc(Cl)cc3)c(=O)c12` yielded a melting point of 251 to 252 °C.
Compound `CN(C)C(=O)CCC(NC(=O)C=Cc1ccco1)C(=O)N(C)C` (centres undefined) returned a melting point of 178 to 180 °C.
For the compound `Cn1c(C(F)(F)F)cc(=O)n(-c2cc(OCS(C)=O)c(Cl)cc2F)c1=O` (centres undefined), the melting point is 178 to 179 °C.
Regarding `CN(C)C(=O)NCCCCC1CCSS1` (centres undefined), the melting point is 52 to 53 °C.
`CC(=O)OC1CSC(Oc2cncc(-c3ccoc3)c2)C(OC(C)=O)C1OC(C)=O` (centres undefined) showed a melting point of 127 °C.
On to `C#CCc1ccc2c(C)c(C(=O)O)c(=O)oc2c1`, for which the melting point was 172 °C.
In turn, `Nc1nc2ccc(Sc3ccccc3)cc2s1` came in with a melting point of 180 to 182 °C.
`C[C@@H](n1ccnn1)[C@](O)(Cn1ccnc1)c1ccc(F)cc1F` registered a melting point of 150 to 151 °C.
`CCn1c2c(c3ccccc31)=CC(=C1c3ccccc3-c3ccccc31)CC=2` registered a melting point of 172 °C.
As for `CN1CCN(c2ccc(C=CC(=O)N3CCc4c([nH]c5ccccc45)C3c3ccc4c(c3)CCO4)cn2)CC1` (centres undefined), the melting point was above 260 °C.
The figure for `CCn1cc(C(=O)O)c(=O)c2cc(F)c(N3CCC(NC)C3)nc21` (centres undefined) is 242 °C; for `CCOc1nc(C)nc2oc(-c3ccco3)nc12` it is 104 to 106 °C; for `Cc1cc(=O)n(-c2cc(OC(C)C)c(C)cc2F)c(=O)o1` it is 122 to 124 °C.
The compound `CN1CCC(O)(c2cccc(F)c2F)C1` (single isomer, unassigned; (-)) had a melting point of 131 to 132 °C.
The figure for `CCCn1c(COCC)nc2c(N)nc3cc(OCC(=O)N4CCOCC4)ccc3c21` is 213 °C; for `COCCc1ccc(-c2ccc(I)cc2)cc1` it is 97 to 99.4 °C; for `CC(C)c1c(CCC=O)c2c(c(C(C)C)c1OCc1ccccc1)CC(C)(C)O2` it is 120 to 122 °C.
In the case of `CCOC(=O)c1cnc2cc(Cl)ccc2c1N=[N+]=[N-]`, the melting point came out at 94.5 °C.
`CCNC(=S)n1nc(Oc2c(Cl)cc(C(F)(F)F)cc2Cl)cc1C` displayed a melting point of 94 to 96 °C.
As for `Cc1c(C(=O)Nc2ccc(N3CCN(c4ccc(Cl)cc4)CC3)c(C#N)c2)cnn1-c1ccc(Cl)cc1`, the melting point turned out to be 265 °C.
`CCOCN1C(C)=C(C(=O)OC)[C@H](c2cccc([N+](=O)[O-])c2)C(C(=O)OCOC(=O)C(C)(C)C)=C1C` showed a melting point of 81 to 82 °C.
For the compound `Cc1ccc(S(=O)(=O)N=c2ccc(C)cn2-c2cccc(C(F)(F)F)c2)cc1`, the melting point was determined as 174 °C.
The figure for `O=C1C=C(Nc2ccccc2F)CCN1` is 98 to 100 °C; for `CCN(CC)CC(=O)OC1CC2(C)C(C(C)=O)CCC2C2CCC3CC(O)C(SC#N)CC3(C)C12` (centres undefined) it is 173 to 180 °C; for `COc1ccc2c(Cc3c(Cl)cncc3Cl)nnc(-n3cncn3)c2c1` it is 207 to 208 °C.
Then `O=c1c(Cl)c(Cl)sn1C1CCCCC1`, with 114 to 116 °C; and `Nc1cn(-c2cncc(F)c2)nc1Cl`, with 149 to 151 °C; and `C=CCN1CCN2c3ccccc3Cn3cccc3C2C1` (centres undefined), with 130 to 132 °C.
Then `CC(=O)Nc1cc2c(c(C(=O)O)c1)NCCC2`, with 258 to 259 °C; and `CCC(C(=O)O)N(C(=O)c1cn(-c2cc(C(F)(F)F)ccc2Cl)nc1C)c1ccc(OCC(C)(C)C)c(C#N)c1` (centres undefined), with 134 to 135 °C; and `O=C(O)c1ccc2oc3ccccc3c2c1`, with 172 to 173 °C.
`CC[C@H]1[C@H](O)C2(CC2)C(=O)N1c1ccc(C#N)c(C(F)(F)F)c1` yielded a melting point of 106 to 110 °C.
On to `NC(=O)Cc1cc(Oc2ccc3c(ccn3C(=O)Nc3ccc(N4CCNCC4)c(C(F)(F)F)c3)c2)ncn1`, for which the melting point lay within 149 to 152 °C.
As for `OC(Cn1cncn1)(Cn1cnc(Cc2ccc(F)cc2)n1)c1ccccc1C(F)(F)F` (centres undefined), the melting point lay in the range of 100 to 103 °C.
`O=C1NC(=O)C(Cc2ccc(SCCc3ccccc3)cc2)S1` (centres undefined) had a melting point of 58 to 65 °C.
The compound `COC(=O)[C@](C)(Cc1ccc(N(C(=O)OC(C)(C)C)C(=O)C2CCNCC2)cc1)n1nnnc1C1CCCN1S(=O)(=O)c1ccc(C)cc1` (some centres undefined) had a melting point of 92 to 102 °C.
The figure for `O=c1c2ccc(-c3nnn[nH]3)cc2oc2ccc(-c3nnn[nH]3)cc12` is above 400 °C; for `Cc1c(-c2ccncc2)sc2c1C(=O)CCC2` it is 129 to 130 °C.
Turning to `COc1ccc(-c2nc(Sc3ccccc3F)[nH]c2-c2ccc(OC)cc2)cc1`, the melting point turned out to be 195 °C.
